Assay results from PubChem BioAssay AID256 (DTP/NCI, 2004).
Values joined by “and” are separate entries in the source; they are usually repeats but may differ in a detail not shown here. Identical values can stand only once. Inconclusive results and toxic doses are left out.

Test system: CD2F1 mice, L1210 leukemia ip, survival T/C
Experiment: NCI In Vivo Anticancer Drug Screen. Data for tumor model L1210 Leukemia (intraperitoneal) in CD2F1 (CDF1) mice
Settings: endpoint: mean survival time, higher = longer survival
Procedure, shortened: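 Read-out first: treated-group measurement over vehicle-control measurement, expressed as a ratio. Animals bore a transplanted tumor line and were dosed with compound or vehicle.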

[1] = dose: 100.0 mg/kg/injection, schedule: Q01DX009 (ip), vehicle: saline with Tween-80
[2] = dose: 100.0 mg/kg/injection, schedule: Q04DX003 (ip), vehicle: saline with Tween-80
[3] = dose: 200.0 mg/kg/injection, schedule: Q04DX003 (ip), vehicle: saline with Tween-80
[4] = dose: 400.0 mg/kg/injection, schedule: Q04DX003 (ip), vehicle: saline with Tween-80
[5] = dose: 100.0 mg/kg/injection, schedule: Q04DX003 (ip), vehicle: acetone
[6] = dose: 200.0 mg/kg/injection, schedule: Q04DX003 (ip), vehicle: acetone

Which results are given for `C(=Nc1ccccc1)c1ccccc1C=Nc1ccccc1`?
T/C [1]: 94 % of control; T/C (dose: 100.0 mg/kg/injection, schedule: Q04DX003 (ip), vehicle: saline sonified): 100 % of control; T/C (dose: 200.0 mg/kg/injection, schedule: Q01DX009 (ip), vehicle: saline with Tween-80): 92 % of control; T/C (dose: 200.0 mg/kg/injection, schedule: Q04DX003 (ip), vehicle: saline sonified): 100 % of control; T/C (dose: 400.0 mg/kg/injection, schedule: Q01DX009 (ip), vehicle: saline with Tween-80): 94 % of control; T/C (dose: 400.0 mg/kg/injection, schedule: Q04DX003 (ip), vehicle: saline sonified): 102 % of control

Which T/C (dose: 0.62 mg/kg/injection, schedule: Q01DX009 (ip), vehicle: Klucel (hydroxypropylcellulose) (HPC)) does the source give for `CCCCCn1c(C)cc(/C=C\c2ccc3cc(C)ccc3[n+]2C)c1C` here?
Its T/C is 101 % of control.

And the T/C (dose: 0.63 mg/kg/injection, schedule: Q01DX009 (ip), vehicle: Klucel (hydroxypropylcellulose) (HPC))?
The T/C was 106 % of control.

What about the T/C (dose: 1.25 mg/kg/injection, schedule: Q01DX009 (ip), vehicle: Klucel (hydroxypropylcellulose) (HPC)) of the same molecule?
Its T/C is 114 % of control and 107 % of control.

How did the T/C (dose: 100.0 mg/kg/injection, schedule: Q01DX001 (ip), vehicle: carboxymethylcellulose (CMC)) turn out when `CSc1nc(=O)[nH]nc1SCc1ccccc1` was run?
Its T/C is 100 % of control.

And the T/C (dose: 200.0 mg/kg/injection, schedule: Q01DX001 (ip), vehicle: carboxymethylcellulose (CMC))?
Its T/C is 91 % of control.

What about the T/C (dose: 400.0 mg/kg/injection, schedule: Q01DX001 (ip), vehicle: carboxymethylcellulose (CMC)) of the same molecule?
Its T/C is 89 % of control.

How did the T/C (dose: 25.0 mg/kg/injection, schedule: Q01DX001 (ip), vehicle: saline with Tween-80) turn out when `CC(C)C(O)C(C)[N+](=O)[O-]` (stereo unspecified) was run?
Its T/C is 86 % of control.

And the T/C (dose: 50.0 mg/kg/injection, schedule: Q01DX001 (ip), vehicle: saline with Tween-80)?
The T/C was 96 % of control.

Which results are given for `C=C=CCCCCCCCC`?
T/C [2]: 102 % of control; T/C [3]: 98 % of control; T/C [4]: 105 % of control

What does the source list for `Cc1ccc(S(=O)(=O)OC2CC3CCC2C3)cc1` (stereo unspecified)?
T/C [5]: 105 % of control; T/C [6]: 101 % of control; T/C (dose: 400.0 mg/kg/injection, schedule: Q04DX003 (ip), vehicle: acetone): 100 % of control

What does the source list for `COc1ccc(CCN2CC34C=CC(O3)C(C(=O)O)C4C2=O)cc1OCc1ccccc1` (stereo unspecified)?
T/C (dose: 100.0 mg/kg/injection, schedule: Q04DX002 (ip), vehicle: saline with Tween-80): 95 % of control; T/C (dose: 200.0 mg/kg/injection, schedule: Q04DX002 (ip), vehicle: saline with Tween-80): 95 % of control; T/C (dose: 400.0 mg/kg/injection, schedule: Q04DX002 (ip), vehicle: saline with Tween-80): 95 % of control

Which T/C (dose: 100.0 mg/kg/injection, schedule: Q01DX001 (ip), vehicle: saline with Tween-80) does the source give for `O=C1Nc2ccc(C(=O)O)c(O)c2C1=O` here?
Its T/C is 96 % of control.

What about the T/C (dose: 200.0 mg/kg/injection, schedule: Q01DX001 (ip), vehicle: saline with Tween-80) of the same molecule?
Its T/C is 100 % of control.

What about the T/C (dose: 400.0 mg/kg/injection, schedule: Q01DX001 (ip), vehicle: saline with Tween-80) of the same molecule?
The T/C was 89 % of control.

`Cc1c(O)c2c(c(O)c1Cc1cccc(CN)c1)C(=O)c1ccccc1C2=O` was tested. Which T/C (dose: 1.56 mg/kg/injection, schedule: Q01DX009 (ip), vehicle: other) did it give?
Its T/C is 101 % of control.

What about the T/C (dose: 3.13 mg/kg/injection, schedule: Q01DX009 (ip), vehicle: other) of the same molecule?
Its T/C is 93 % of control.

What about the T/C (dose: 6.25 mg/kg/injection, schedule: Q01DX009 (ip), vehicle: other) of the same molecule?
The T/C was 87 % of control.

What about the T/C (dose: 12.5 mg/kg/injection, schedule: Q01DX009 (ip), vehicle: other) of the same molecule?
The T/C was 90 % of control.

What about the T/C (dose: 25.0 mg/kg/injection, schedule: Q01DX009 (ip), vehicle: other) of the same molecule?
The T/C was 94 % of control.

Which T/C (dose: 100.0 mg/kg/injection, schedule: Q01DX001 (ip), vehicle: Klucel (hydroxypropylcellulose) (HPC)) does the source give for `O=[N+]([O-])c1ccc(/C=C/C2(CCl)OCCO2)cc1` here?
Its T/C is 96 % of control.

What about the T/C (dose: 200.0 mg/kg/injection, schedule: Q01DX001 (ip), vehicle: Klucel (hydroxypropylcellulose) (HPC)) of the same molecule?
The T/C was 92 % of control.

What about the T/C (dose: 400.0 mg/kg/injection, schedule: Q01DX001 (ip), vehicle: Klucel (hydroxypropylcellulose) (HPC)) of the same molecule?
Its T/C is 100 % of control.

For `N#Cc1c(NC(=S)NC2OC(COCc3ccccc3)C(OCc3ccccc3)C2OCc2ccccc2)ncn1Cc1ccccc1` (stereo unspecified), which T/C (dose: 50.0 mg/kg/injection, schedule: Q01DX009 (ip), vehicle: acetone) is on record?
Its T/C is 94 % of control.

And the T/C (dose: 100.0 mg/kg/injection, schedule: Q01DX009 (ip), vehicle: acetone)?
The T/C was 98 % of control.

And the T/C [5]?
Its T/C is 91 % of control.

What about the T/C (dose: 200.0 mg/kg/injection, schedule: Q01DX009 (ip), vehicle: acetone) of the same molecule?
The T/C was 93 % of control.

And the T/C [6]?
Its T/C is 91 % of control.

How did the T/C (dose: 12.5 mg/kg/injection, schedule: Q01DX009 (ip), vehicle: saline with Tween-80) turn out when `CC(=O)Nc1ccc(/C=N/NC(=O)CNC(=O)Nc2cccc([N+](=O)[O-])c2)cc1` was run?
Its T/C is 87 % of control.

And the T/C (dose: 25.0 mg/kg/injection, schedule: Q01DX009 (ip), vehicle: saline with Tween-80)?
Its T/C is 91 % of control.

And the T/C (dose: 50.0 mg/kg/injection, schedule: Q01DX009 (ip), vehicle: saline with Tween-80)?
The T/C was 91 % of control.

What about the T/C [1] of the same molecule?
Its T/C is 88 % of control.

What does the source list for `CC1CC(C)(C)OC(C(C)(C)C)O1` (stereo unspecified)?
T/C (dose: 50.0 mg/kg/injection, schedule: Q04DX002 (ip), vehicle: saline): 92 % of control; T/C (dose: 100.0 mg/kg/injection, schedule: Q04DX002 (ip), vehicle: saline): 100 % of control; T/C (dose: 200.0 mg/kg/injection, schedule: Q04DX002 (ip), vehicle: saline): 103 % of control

Which T/C [2] does the source give for `CCOC(=O)c1ccc(NC(=S)NC(=O)c2ccc(Cl)cc2Cl)cc1` here?
The T/C was 100 % of control.

What about the T/C [3] of the same molecule?
Its T/C is 91 % of control.

And the T/C [4]?
Its T/C is 91 % of control.

What does the source list for `CC[n+]1ccc(Nc2ccc(NC(=O)c3ccc(Nc4cc[n+](CC)c5ccc([N+](=O)[O-])cc45)cc3)cc2)cc1`?
T/C (dose: 2.0 mg/kg/injection, schedule: Q01DX009 (ip), vehicle: saline sonified): 105 % of control; T/C (dose: 4.0 mg/kg/injection, schedule: Q01DX009 (ip), vehicle: saline sonified): 108 % of control; T/C (dose: 8.0 mg/kg/injection, schedule: Q01DX009 (ip), vehicle: saline sonified): 123 % of control; T/C (dose: 11.0 mg/kg/injection, schedule: Q01DX009 (ip), vehicle: saline): 119 % of control; T/C (dose: 25.0 mg/kg/injection, schedule: Q01DX009 (ip), vehicle: saline): 162 % of control; T/C (dose: 37.5 mg/kg/injection, schedule: Q01DX009 (ip), vehicle: saline): 203 % of control

With `Oc1c(Cl)cc(Cl)cc1CN(Cc1cc(Cl)cc(Cl)c1O)c1ccccc1` as the molecule, how does the T/C (dose: 12.5 mg/kg/injection, schedule: Q01DX009 (ip), vehicle: Klucel (hydroxypropylcellulose) (HPC)) read?
Its T/C is 103 % of control.

And the T/C (dose: 25.0 mg/kg/injection, schedule: Q01DX009 (ip), vehicle: Klucel (hydroxypropylcellulose) (HPC))?
The T/C was 102 % of control.

And the T/C (dose: 50.0 mg/kg/injection, schedule: Q01DX009 (ip), vehicle: Klucel (hydroxypropylcellulose) (HPC))?
The T/C was 101 % of control.

And the T/C (dose: 100.0 mg/kg/injection, schedule: Q01DX009 (ip), vehicle: Klucel (hydroxypropylcellulose) (HPC))?
Its T/C is 100 % of control.

And the T/C (dose: 200.0 mg/kg/injection, schedule: Q01DX009 (ip), vehicle: Klucel (hydroxypropylcellulose) (HPC))?
Its T/C is 100 % of control.

And the T/C (dose: 400.0 mg/kg/injection, schedule: Q01DX009 (ip), vehicle: Klucel (hydroxypropylcellulose) (HPC))?
The T/C was 94 % of control.
